Experimental data as given in paper PMC4467398, “Preclinical antitumor activity of ST7612AA1: a new oral thiol-based histone deacetylase (HDAC) inhibitor” (Oncotarget, 2014).

Tested on: DOHH2 and TMD8 DLBCL cells
Assay: Gene expression profiling (HumanHT-12 v4 BeadChip, limma), ST7612AA1 300 nM 8 hrs vs DMSO
Type: cell-based, human
Details: 300 nM 8 hrs vs DMSO

CC(=O)SCCCCC[C@H](NC(=O)[C@H]1CCC(=O)N1)C(=O)Nc1ccccc1 [ST7612AA1]
log ratio LOC285359 (ILMN_1675878): 6.44E-01 | log ratio LOC388588 (probe ILMN_1749834): 7.07E-01 | log ratio LOC389816 (ILMN_2249018): 6.55E-01 | log ratio LOC643384 (ILMN_3219806): -1.06E+00 | log ratio LOC644563 (ILMN_3207122): -1.31E+00 | log ratio LOC644988 (ILMN_3201485): 6.07E-01 | log ratio LOC646463 (ILMN_1721651): 6.71E-01 | log ratio LOC646786 (ILMN_1654915): 6.50E-01 | log ratio LOC646817 (ILMN_1702585): -1.11E+00 | log ratio LOC647784 (ILMN_1674710): 6.05E-01 | log ratio LOC650215 (ILMN_1743711): -8.77E-01 | log ratio LOC653566 (ILMN_1780382): -6.21E-01 | log ratio LOC654191 (probe ILMN_1762308): 7.84E-01 | log ratio LOC727935 (probe ILMN_1691616): 7.14E-01 | log ratio LOC728014 (probe ILMN_1711699): 8.58E-01 | log ratio LOC728492 (ILMN_1655444): -8.05E-01 | log ratio LOC728602 (ILMN_3305993): 6.70E-01 | log ratio LOC728650 (ILMN_3234615): -8.83E-01 | log ratio LOC729495 (probe ILMN_3297510): 7.45E-01 | log ratio LOC730101 (probe ILMN_3305735): 7.41E-01 | log ratio LOC730415 (probe ILMN_3228688): 6.95E-01 | log ratio LOC731049 (ILMN_1808591): 6.61E-01 | log ratio LOC731314 (probe ILMN_1785756): 8.31E-01 | log ratio LOC100128163 (probe ILMN_3182893): 7.83E-01 | log ratio LOC100130919 (ILMN_3176090): -8.14E-01 | log ratio LOC100131727 (probe ILMN_3292990): 7.73E-01 | log ratio LOC100131735 (ILMN_3208233): -5.90E-01 | log ratio LOC100132715 (ILMN_3211935): -5.93E-01 | log ratio LOC100133583 (probe ILMN_3214389): 8.94E-01 | log ratio LOC100133678 (probe ILMN_3249667): 8.11E-01 | log ratio LOC100134361 (probe ILMN_3241081): 8.59E-01 | log ratio LPCAT3 (ILMN_1805225): 6.30E-01 | log ratio LRCH4 (probe ILMN_2157075): 8.54E-01 | log ratio LRP8 (ILMN_1677765): -8.68E-01 | log ratio LRRC1 (probe ILMN_1755383): 7.83E-01 | log ratio LRRC16 (ILMN_1736730): 5.94E-01 | log ratio LRRC32 (ILMN_2129161): 6.30E-01 | log ratio LRRC33 (ILMN_1746148): -1.42E+00 | log ratio LRRFIP2 (ILMN_1707156): 6.31E-01 | log ratio LRRK1 (ILMN_1696004): -8.42E-01 | log ratio LTA4H (probe ILMN_1690342): 7.50E-01 | log ratio LUZP1 (ILMN_1714159): 6.25E-01 | log ratio LYAR (ILMN_1764362): -8.62E-01 | log ratio LYAR (ILMN_2221564): -9.24E-01 | log ratio LYRM5 (probe ILMN_1744534): 7.90E-01 | log ratio LYRM7 (ILMN_3238623): 6.34E-01 | log ratio LYSMD4 (probe ILMN_2159859): 6.95E-01 | log ratio MAD2L2 (ILMN_1669550): 6.43E-01 | log ratio MAK16 (ILMN_1777139): -7.86E-01 | log ratio MAP1LC3B (probe ILMN_1703244): 7.73E-01 | log ratio MAP1S (ILMN_1796336): 6.11E-01 | log ratio MAP2K1 (probe ILMN_1694240): 7.15E-01 | log ratio MAPKAPK2 (ILMN_1774844): 6.77E-01 | log ratio MAPRE2 (probe ILMN_1695276): 7.72E-01 | log ratio MARCKSL1 (probe ILMN_1714433): 8.47E-01 | log ratio MAST3 (probe ILMN_1738749): 7.21E-01 | log ratio MCL1 (ILMN_1756806): 6.49E-01 | log ratio MCRS1 (ILMN_1784227): -9.30E-01 | log ratio MED24 (ILMN_2388272): -6.00E-01 | log ratio MEPCE (ILMN_2180827): -8.77E-01 | log ratio METTL1 (ILMN_1815190): -9.82E-01 | log ratio METTL1 (ILMN_3306997): -9.97E-01 | log ratio MEX3C (ILMN_1658182): -6.16E-01 | log ratio MGC3731 (ILMN_1759991): -9.43E-01 | log ratio MGEA5 (ILMN_1686750): 6.73E-01 | log ratio MINA (ILMN_1746025): -5.93E-01 | log ratio MNS1 (probe ILMN_2157240): 7.07E-01 | log ratio MPDU1 (ILMN_1655654): -1.02E+00 | log ratio MPDU1 (ILMN_2070815): -8.19E-01 | log ratio MRLC2 (ILMN_1654016): 5.90E-01 | log ratio MRPL3 (ILMN_1713143): -8.76E-01 | log ratio MRPL20 (ILMN_2189424): -8.46E-01 | log ratio MRPL24 (ILMN_2398995): -6.00E-01 | log ratio MRPL35 (ILMN_2341952): -5.96E-01 | log ratio MRPL54 (ILMN_1658486): -9.87E-01 | log ratio MRPS26 (ILMN_1676026): -7.88E-01 | log ratio MRPS30 (ILMN_1726743): -5.98E-01 | log ratio MRPS35 (ILMN_2189993): -8.24E-01 | log ratio MRTO4 (ILMN_1689800): -9.19E-01 | log ratio MTE (probe ILMN_2136089): 8.56E-01 | log ratio MTHFD1L (ILMN_1772521): -9.66E-01 | log ratio MTHFS (ILMN_1772302): -1.28E+00 | log ratio MTP18 (ILMN_2355665): -9.91E-01 | log ratio MTX3 (ILMN_1679071): -6.10E-01 | log ratio MYB (ILMN_1711894): -9.88E-01 | log ratio MYBL1 (probe ILMN_3241046): 7.69E-01 | log ratio MYD88 (ILMN_1738523): -1.17E+00 | log ratio MYH9 (ILMN_1722872): 6.24E-01 | log ratio MYH10 (ILMN_1815154): 5.97E-01 | log ratio N6AMT2 (ILMN_1730260): -9.90E-01 | log ratio NARG1 (ILMN_1669142): -6.10E-01 | log ratio NBN (ILMN_1734833): -9.40E-01 | log ratio NECAP2 (ILMN_1749011): 6.12E-01 | log ratio NEK2 (ILMN_2051373): 6.21E-01 | log ratio NGDN (ILMN_1690049): -6.03E-01 | log ratio NIP7 (ILMN_1704305): -1.05E+00 | log ratio NLGN2 (ILMN_1764158): 6.16E-01 | log ratio NMI (ILMN_1739541): -9.86E-01 | log ratio NOL6 (ILMN_2320250): -8.75E-01 | log ratio NOL11 (ILMN_1688971): -7.88E-01 | log ratio NOP16 (ILMN_3247723): -1.13E+00 | log ratio NOSIP (probe ILMN_1759436): 7.06E-01 | log ratio NPC2 (probe ILMN_1716678): 8.44E-01 | log ratio NPHP3 (ILMN_1730539): 6.73E-01 | log ratio NPL (probe ILMN_1782070): 7.76E-01 | log ratio NPL (probe ILMN_2149494): 8.88E-01 | log ratio NQO2 (probe ILMN_1712918): 8.69E-01 | log ratio NSMAF (ILMN_1716596): -1.37E+00 | log ratio NUB1 (probe ILMN_1665291): 7.20E-01 | log ratio NUCKS1 (ILMN_3251404): -5.98E-01 | log ratio NUDT6 (ILMN_2366972): 5.92E-01 | log ratio NUDT15 (ILMN_1751403): -5.98E-01 | log ratio NUMB (probe ILMN_2331266): 7.27E-01 | log ratio NUP188 (ILMN_1715416): -5.95E-01 | log ratio NXF1 (probe ILMN_1705783): 8.80E-01 | log ratio NXF1 (probe ILMN_2358652): 7.18E-01 | log ratio NXT1 (ILMN_1760280): -8.51E-01 | log ratio OAS2 (ILMN_2248970): -1.29E+00 | log ratio OSBPL2 (ILMN_1656482): 6.07E-01 | log ratio P704P (probe ILMN_1793950): 6.85E-01 | log ratio PAG1 (ILMN_2055156): 6.63E-01 | log ratio PAQR3 (ILMN_1716071): 6.81E-01 | log ratio PAQR8 (probe ILMN_1694589): 7.20E-01 | log ratio PCMT1 (ILMN_1671621): 6.27E-01 | log ratio PCTP (ILMN_1802257): 6.55E-01 | log ratio PCYOX1 (probe ILMN_1679725): 7.89E-01 | log ratio PDCD2 (ILMN_1758915): -8.70E-01 | log ratio PDXK (probe ILMN_1672504): 8.94E-01 | log ratio PECI (probe ILMN_2384536): 8.25E-01 | log ratio PEMT (ILMN_1745806): -5.93E-01 | log ratio PEX16 (probe ILMN_1745655): 7.84E-01 | log ratio PFKFB3 (ILMN_2186061): 6.71E-01 | log ratio PHF5A (ILMN_2112402): -8.44E-01 | log ratio PHF15 (ILMN_1795285): -8.13E-01 | log ratio PHF19 (ILMN_1713249): -1.52E+00 | log ratio PHF19 (ILMN_1745420): -1.01E+00 | log ratio PIGW (ILMN_1743397): -1.03E+00 | log ratio PIM2 (probe ILMN_1748283): 7.43E-01 | log ratio PITX1 (ILMN_1674386): -8.58E-01 | log ratio PKIA (ILMN_1762262): 6.12E-01 | log ratio PKIA (probe ILMN_2337974): 7.37E-01 | log ratio PLD3 (probe ILMN_1666976): 8.81E-01 | log ratio PLD6 (ILMN_1731518): -1.18E+00 | log ratio PLD6 (ILMN_3240586): -1.84E+00 | log ratio PLIN2 (ILMN_2138765): 5.92E-01 | log ratio PLS1 (ILMN_1759206): 6.43E-01 | log ratio PLXNA3 (ILMN_1719972): 6.52E-01 | log ratio PMAIP1 (probe ILMN_2098446): 8.50E-01 | log ratio PNKD (probe ILMN_1774604): 7.25E-01
